What is called inhibition is the share of the control response that was lost under treatment. Read a high inhibition as strong suppression.

Molecules are shown by their SMILES.

One assay has as its target T1, hDGAT1 (Homo sapiens, UniProt O75907).
T1 construct: host or cells: Sf9 insect cells (baculovirus); microsomal preparation
T1 sequence (O75907 1-488): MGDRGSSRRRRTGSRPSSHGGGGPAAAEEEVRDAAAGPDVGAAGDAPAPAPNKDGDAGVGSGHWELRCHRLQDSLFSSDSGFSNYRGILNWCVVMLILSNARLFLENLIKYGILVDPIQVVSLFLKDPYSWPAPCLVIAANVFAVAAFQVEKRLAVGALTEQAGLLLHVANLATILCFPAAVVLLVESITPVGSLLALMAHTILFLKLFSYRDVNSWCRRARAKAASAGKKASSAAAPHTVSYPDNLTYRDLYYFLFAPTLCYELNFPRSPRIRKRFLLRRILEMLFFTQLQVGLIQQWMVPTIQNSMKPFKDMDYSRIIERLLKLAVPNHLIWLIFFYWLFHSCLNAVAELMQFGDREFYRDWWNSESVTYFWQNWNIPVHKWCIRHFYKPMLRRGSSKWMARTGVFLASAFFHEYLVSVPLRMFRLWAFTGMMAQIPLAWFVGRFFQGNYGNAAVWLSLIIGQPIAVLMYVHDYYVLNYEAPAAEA
The experiment in a line: In-vitro DGAT1 assay (hDGAT1 microsomes from Sf9 cells, 14C oleoyl CoA, triglyceride formation). Type of assay: biochemical. The note with it: At 1 μM. On the procedure: In-vitro Protocol for DGAT1 Assay
Sf9 Culture and Treatment
Sf9 cells were grown in T25 flasks containing Graces's Insect media with 10% FBS with antibiotic (100 units/mL penicillin, 100 μg/mL streptomycin sulphate, 0.25 μg/mL Amptotericin B as Fungizone) grown in a 27° C. incubator:
hDGAT1ORF expression clone (RZPDo839C09146 in pDEST vector) was obtained from RZPD, Germany. hDGAT1 bacmid DNA was obtained by transformation of the hDGAT expression clone into DH10Bac E. coli competent cells. Approximately 1 μg of hDGAT1 bacmid DNA was infected into Sf9 cells with Cellfectin (Invitrogen) reagent. Following infection, Sf9 cells were incubated at 27° C. for 30 minutes. Five hours after infection, the media was replaced with growth media containing antibiotic (100 units/mL penicillin, 100 μg/mL streptomycin sulphate, 0.25 μg/mL Amptotericin B as Fungizone) and incubated at 27° C. for 72 hours. The supernatant containing the virus was centrifuged at 1500×g for 5 minutes, passed through 0.22 μm filter, and subsequently stored at 4° C. The virus was further amplified three more times by re-infection of Sf9 cells and the viral titer was determined by plaque assay.
Preparation of DGAT1 Microsomes from Sf9 Cells
Sf9 cells were seeded in spinner flasks on day 0 at a cell density of 1×10^6 and infected on day 1 with hDGAT1 baculovirus at a multiplicity of infection (MOI) of 5 and a cell density of 2×10^6. On day 3 (or 66-72 hours), cells were harvested and centrifuged at 2500×g for 10 minutes. Pellet was resuspended in lysis buffer (100 mM sucrose, 50 mM KCl, 40 mM KH2PO4, 30 mM EDTA, pH 7.2) and passed through 21-gauge needle approximately 10 times. The mixture was centrifuged at 12,000 rpm in a Sigma 12158-H rotor at 4° C. for 30 minutes. The supernatant was subjected to centrifugation at 35,000 rpm in a Beckman Ti-45 rotor at 4° C. for 1 hour. The resultant pellet containing the microsomes were resuspended overnight in 1 mL of lysis buffer and total protein concentration was estimated using Bradford Reagent. Microsomes were aliquoted and stored at −20° C.
Measurement of DGAT1 Activity
Frozen aliquots of hDGAT1 containing microsomes were thawed (5-10 mg/mL total protein) on ice and diluted to a working stock of 1 mg/mL with DGAT Assay Buffer (DAB). The DGAT reaction assay was performed by following the procedure described in U.S. Pat. No. 6,607,893 with some modifications that are described below.
Preparation of DGAT1 substrate mixture: 1 mL stock solution of DGAT1 substrate mixture contains (i) 5.6 μL of ^14C oleoyl CoA (16.8 nCi) and 35 μL 1,2-dioleoyl-sn-glycerol (409.5 μM) or (ii) 5.6 μL of ^14C oleoyl CoA (16.8 nCi) and 105 μL 1,2-dioleoyl-sn-glycerol (1228.5 μM) or (iii) 5.6 μL of ^14C oleoyl CoA (16.8 nCi) and 140 μL 1,2-dioleoyl-sn-glycerol (1638 μM).
1,2-sn-dioleoylglycerol substrate concentration in the 1 mL stock solution of DGAT1 substrate mixture was varied depending on the microsome concentration used in the assay reaction. 1,2-dioleoyl-sn-glycerol stock (19.5 mM) was prepared by dissolving 25 mg of 1,2-dioleoyl-sn-glycerol (Sigma, US) in 2060 μL of acetone. The assay was performed in duplicates in a reaction volume of 100 μL. The reaction volume consisted of: • (i) 27.5 μL of DGAT assay buffer (0.25M Sucrose, 1 mM EDTA (pH 8.0), 150 mM Tris-HCl, pH 7.4, 1.25 mg/mL, fatty acid free BSA), • (ii) 10 μL of compound, of present invention or standard (dissolved in DMSO and diluted to 10× with DAB and screened at 10 μM, 5 μM and 1 μM), • (iii) 60 μL DGAT1 substrate mixture taken from a 1 mL stock (16.8 nCi of ^14C oleoyl CoA and 409.5 μM or 1228.5 μM or 1638 μM of 1,2-dioleyl-sn-glycerol), • (iv) 2.5-10 μL of 1 mg/mL of microsomes (the amount of assay buffer was varied depending upon the concentration of microsome to make up the volume to 100 μL). Procedure:
The reaction was started by the addition of 2.5-10 μL of 1 mg/mL of microsomes (iv) to a mixture of (i), (ii) and (iii), vortexed and incubated at 37° C. for 10 minutes. […]
Turning to `COc1ccccc1NC(=O)Nc1ccc(-c2cc(C(=O)N[C@H](C(=O)O)C(C)C)on2)cc1` [Example 185, (S)-2-(3-(4-(3-(2-methoxyphenyl)ureido)phenyl)isoxazole-5-carboxamido)-3-methylbutanoic acid], the inhibition at 1 µM fell in the range of 75 to 100%.

For `CC(C)[C@H](NC(=O)c1cc(-c2ccc(NC(=O)Nc3c(Cl)cccc3C(F)(F)F)cc2)no1)C(=O)O` [Example 234, (S)-2-(3-(4-(3-(2-Chloro-6-(trifluoromethyl)phenyl)ureido)phenyl)isoxazole-5-carboxamido)-3-methylbutanoic acid], the inhibition at 1 µM lay in the range of 0 to 50%.

For `CC(C)[C@H](NC(=O)c1cc(-c2ccc(NC(=O)Nc3ccc(Cl)cc3Oc3ccccc3)cc2)no1)C(=O)O` [Example 201, (S)-2-(3-(4-(3-(4-Chloro-2-phenoxyphenyl)ureido)phenyl)isoxazole-5-carboxamido)-3-methylbutanoic acid], the inhibition at 1 µM was in the range of 75 to 100%.

The assay is the same for the next values; noted with them: At 5 μM.
In turn, `COC(=O)[C@@H](NC(=O)c1cc(-c2ccc(NC(=O)Nc3ccc(F)cc3F)cc2F)no1)C(C)C` [Example 141, (S)-Methyl 2-(3-(4-(3-(2,4-difluorophenyl)ureido)-2-fluorophenyl)isoxazole-5-carboxamido)-3-methylbutanoate] had an inhibition at 5 µM of 0 to 50%.

The same assay, now with this note: At 10 μM.
Turning to `CC(C)[C@H](NC(=S)c1cc(-c2cccc(Nc3nc4ccc(F)cc4s3)c2)no1)C(=O)O` [Example 25, (S)-2-({3-[3-(6-Fluoro-benzothiazol-2-ylamino)-phenyl]-isoxazole-5-carbothioyl}-amino)-3-methyl-butyric acid], the inhibition at 10 µM is 0 to 50%.

`COC(=O)[C@@H](NC(=O)c1cc(-c2ccc(NC(=O)Nc3ccc(F)cc3)cc2)no1)C(C)C` [Example 84, (S)-2-[(3-{4-[3-(4-Fluoro-phenyl}-ureido]-phenyl)-isoxazole-5-carbonyl)-amino]-3-methyl-butyric acid methyl ester] showed an inhibition at 10 µM of 50 to 75%.

On to `O=C(O)CNC(=O)c1cc(-c2ccc(Nc3nc4ccc(F)cc4s3)cc2)no1` [Example 59, ({3-[4-(6-Fluoro-benzothiazol-2-ylamino)-phenyl]-isoxazole-5-carbonyl}-amino)-acetic acid], for which the inhibition at 10 µM lay in the range of 0 to 50%.

Turning to `CC(C)C(NC(=O)c1cc(-c2ccc(NC(=O)NCc3ccccc3)cc2)no1)C(=O)O` (stereo not shown) [Example 108, 2-(3-(4-(3-Benzylureido)phenyl)isoxazole-5-carboxamido)-3-methylbutanoic acid], the inhibition at 10 µM was in the range of 50 to 75%.

On to `COC(=O)C(NC(=O)c1cc(-c2ccc(NC(=O)Nc3ccc(F)cc3F)cc2)no1)C(C)C` (stereo not shown) [Example 111, Methyl 2-(3-(4-(3-(2,4-difluorophenyl)ureido)phenyl)isoxazole-5-carboxamido)-3-methylbutanoate], for which the inhibition at 10 µM lay in the range of 50 to 75%.

With `COC[C@H](NC(=S)c1cc(-c2ccc(Nc3nc4ccc(F)cc4s3)cc2)no1)C(=O)OC` [Example 14, (S)-2-({3-[4-(6-Fluoro-benzothiazol-2-ylamino)-phenyl]-isoxazole-5-carbothioyl}-amino)-3-methoxy-propionic acid methyl ester], the inhibition at 10 µM is 0 to 50%.

As to `NC(=S)c1cc(-c2ccc(Nc3nc4ccc(F)cc4s3)cc2)no1` [Example 4, 3-[4-(6-Fluoro-benzothiazol-2-ylamino)-phenyl]-isoxazole-5-carbothioic acid amide], the inhibition at 10 µM is 0 to 50%.

Compound `COC(=O)[C@@H]1CCCN1C(=O)c1cc(-c2ccc(Nc3nc4ccc(F)cc4s3)cc2)no1` [Example 18, (S)-1-{3-[4-(6-Fluoro-benzothiazol-2-ylamino)-phenyl]-isoxazole-5-carbonyl}-pyrrolidine-2-carboxylic acid methyl ester] registered an inhibition at 10 µM of 50 to 75%.

On to `COC[C@H](NC(=O)c1c(-c2ccc(Nc3nc4ccc(F)cc4s3)cc2)noc1-c1ccccc1)C(=O)OC` [Example 70, (S)-2-({3-[4-(6-Fluoro-benzothiazol-2-ylamino)-phenyl]-5-phenyl-isoxazole-4-carbonyl}-amino)-3-methoxy-propionic acid methyl ester], for which the inhibition at 10 µM lay in the range of 0 to 50%.

The values above are taken from patent US8835428B2, “Diacylglycerol acyltransferase inhibitors” (Piramal Enterprises Limited, priority 2008, dated 2014).
